This note sets out measurements from paper doi:10.1101/2023.05.15.540887, “Comparative analysis of drug-like EP300/CREBBP acetyltransferase inhibitors” (bioRxiv, 2023).

Test [1] deals with MCF10A PANK4 KO+PANK4 mutant (D623A) cells. The test can be described thus: Sulforhodamine B cell growth assay, MCF10A PANK4 KO+PANK4 mutant. Type of test: cell-based. The note with it: Homo sapiens; MCF-10A KO+PANK4 mutant, 72 h.
Test [2] relates to histone H3 acetylation in MCF-10A cells (PANK4 KO+WT, KO+EV). The test can be described thus: Western blot of H3K18Ac and H3K23Ac in MCF-10A PANK4 KO+WT and KO+EV cells. The format is cell-based, human. The note with it: 3 h, 1 at micromolar and 3 at nanomolar concentrations. An excerpt:
Recently, we reported the discovery of a phosphorylation-dependent signaling cascade that can upregulate CoA biosynthesis in human cells by inhibiting the activity of PANK4, a negative regulator of this pathway (Fig. 4a).[34] This occurs via PANK4’s ability to reverse the rate-limiting step in CoA production, which is phosphorylation of pantothenate (vitamin B5) by PANK1–3.[35] […] Considering how to resolve these mechanisms, we wondered if this may be an area where knowledge of the comparative pharmacology of EP300/CREBBP inhibitors could be usefully leveraged. Specifically, we hypothesized that if PANK4 inactivation (knockout; KO) led to a resistance mechanism dependent on EP300/CREBBP active site occupancy (e.g. competitive binding), then the differential potency of 1 and 3 would be preserved – albeit over a shifted concentration range – in the resistant PANK4 KO cell line (Fig. 4b). […] To correlate these observations with the effect of the compounds on cellular acetyltransferase activity, we monitored histone H3 acetylation at an EP300/CREBBP-dependent site (H3K18Ac) and EP300/CREBBP-independent site (H3K23Ac). […]
Histone samples were quantified using the Precision Red Protein Assay (Cytoskeleton #ADV02). […]
A general note: A western blot detects proteins with antibodies after separation by electrophoresis.

The next test has as its system LOXIMVI. Nature of the test: NCI-60 growth inhibition (sulforhodamine B). Type of test: cell-based, human. The following applies: LOX IMVI (Melanoma), negative log of Molar conc., LCONC -8.
The next test deals with UACC-257. Nature of the test: NCI-60 growth inhibition (sulforhodamine B). The format is cell-based, human. The note with it: UACC-257 (Melanoma), negative log of Molar conc., LCONC -8.
Another test relates to 786-0. Nature of the test: NCI-60 growth inhibition (sulforhodamine B). The format is cell-based. The note with it: Homo sapiens, 786-0, Renal Cancer, negative log of Molar value, LCONC -8, EXPID 2301NS84.
The next test relates to ACHN. The test can be described thus: NCI-60 growth inhibition (sulforhodamine B). Type of test: cell-based. The note with it: Homo sapiens, Renal Cancer, negative log of Molar value.
Setting [3] is: Homo sapiens, read-out: LC50 NLOGVALUE

As usually defined, the IC50 is the concentration that gives 50% inhibition. A word on the GI50: it is the concentration giving 50% growth inhibition.

Take `C[C@H](CN[C@@H](C(=O)Nc1ccc(-c2cnn(C)c2)cn1)c1ccccc1)c1ccc(C#N)cc1` [CPI-1612]: the IC50 was 102 nM in test [1]; 129 nM in the test with LOXIMVI (Homo sapiens, read-out: IC50 NLOGVALUE (converted)); over 100000 nM in the test with UACC-257 (Homo sapiens, read-out: IC50 NLOGVALUE); over 100000 nM in the test on 786-0 (read-out: IC50 NLOGVALUE); 30.9 nM with ACHN (LCONC -8, EXPID 2301NS84, read-out: IC50 NLOGVALUE (converted)). For the same molecule, in test [2], the “effect on H3K18Ac, PANK4 KO+EV versus KO+WT” value is recorded as “PANK4 KO lessening the effects”. The GI50 with LOXIMVI (Homo sapiens, read-out: GI50 NLOGVALUE (converted)) is 44.7 nM; with 786-0 (read-out: GI50 NLOGVALUE (converted)) it was 55000 nM; in the test on ACHN (LCONC -8, EXPID 2301NS84, read-out: GI50 NLOGVALUE (converted)), 12.9 nM. Also, the CC50 in the test with LOXIMVI (setting [3]), in the test on UACC-257 (setting [3]) and with 786-0 (read-out: LC50 NLOGVALUE) was over 100000 nM in each case. Moreover, the “TGI NLOGVALUE” with LOXIMVI and in the test on UACC-257 was 4 throughout.
